Activity calls are given as the source filed them. A value given as a limit tells only on which side of the number the result lay.

The text below walks through data of ChEMBL document CHEMBL1201862, “PubChem BioAssay data set” (2004).

The test system of data set [1] is HEK293. Briefly: cells. It counts as functional, cell-based. Particulars: Homo sapiens.
Data set [2] relates to HEK293. Kind of data set: cells. The data set is classed as functional, cell-based. The settings on record: Homo sapiens. The source holds these as a separate data set.
Data set [3] concerns the target Luciferin 4-monooxygenase (Photinus pyralis, UniProt P08659). Kind of data set: firefly luciferase enzyme inhibitors, dose response, biochemical, luminescence (AID 1891).
Data set [4] has as its system HEK293. Briefly: NOD2 signaling inhibitors in MDP-stimulated cells, cell-based, uHTS, luminescence (AID 2001). The data set is classed as functional. The settings on record: Homo sapiens.
The nature of data set [5]: Luminescence Cell-Based Dose Confirmation HTS to Identify Inhibitors of Platelet Dense Granule Release. [Related pubchem assays: 1663 (Primary HTS), 1678 (Summary of Project)]. The data set is classed as functional.
Data set [6] relates to HEK293. Briefly: NOD1 signaling inhibitors, primary screen, cell-based, luminescence, uHTS (AID 1578). Particulars: Homo sapiens. It counts as functional.
The subject of data set [7] is HEK293. Briefly: cells. Particulars: Homo sapiens. It counts as functional, cell-based. This is another data set of the same source.
The target of data set [8] is Nucleotide-binding oligomerization domain-containing protein 2 (Homo sapiens, UniProt Q9HC29). Briefly: NOD2 signaling inhibitors, cell-based, luminescence, uHTS, HEK293 (AID 1566). It counts as functional.
A short description of data set [9]: C. albicans growth with fluconazole, confirmation, fluorescence, retest (AID 2467). The data set is classed as functional, cell-based.
Data set [10] concerns Vero. Kind of data set: cells. The data set is classed as functional. Particulars: Chlorocebus sabaeus.
For another data set, the target named is T1, Protein RecA (Mycobacterium tuberculosis, UniProt P9WHJ3).
T1 sequence (P9WHJ3 whole entry): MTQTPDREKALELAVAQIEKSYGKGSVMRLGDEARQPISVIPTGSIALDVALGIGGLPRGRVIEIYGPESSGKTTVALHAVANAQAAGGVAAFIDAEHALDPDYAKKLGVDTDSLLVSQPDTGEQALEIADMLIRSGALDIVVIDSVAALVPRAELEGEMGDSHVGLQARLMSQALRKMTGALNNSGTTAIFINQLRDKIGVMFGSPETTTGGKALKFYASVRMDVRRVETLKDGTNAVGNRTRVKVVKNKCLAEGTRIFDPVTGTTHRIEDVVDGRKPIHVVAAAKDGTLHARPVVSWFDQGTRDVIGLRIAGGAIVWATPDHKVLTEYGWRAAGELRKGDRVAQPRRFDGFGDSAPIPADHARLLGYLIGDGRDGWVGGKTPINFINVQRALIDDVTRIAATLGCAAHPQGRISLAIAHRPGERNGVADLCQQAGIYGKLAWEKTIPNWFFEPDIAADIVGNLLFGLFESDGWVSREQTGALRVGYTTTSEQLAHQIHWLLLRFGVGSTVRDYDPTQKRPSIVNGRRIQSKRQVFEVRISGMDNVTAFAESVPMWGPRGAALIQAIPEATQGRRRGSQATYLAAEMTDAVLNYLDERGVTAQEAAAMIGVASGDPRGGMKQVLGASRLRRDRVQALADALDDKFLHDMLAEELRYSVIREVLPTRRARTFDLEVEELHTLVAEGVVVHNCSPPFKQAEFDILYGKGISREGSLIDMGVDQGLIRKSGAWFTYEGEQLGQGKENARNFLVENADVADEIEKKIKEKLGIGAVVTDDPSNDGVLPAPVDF
Briefly: Fluorescence Cell-Free Homogeneous Dose Retest to Identify Inhibitors of RecA-Intein Splicing Activity. [Related pubchem assays (depositor defined):AID2097, AID2223, AID489010, AID492950]. It counts as functional.

The test system of data set [11] is Vero. Briefly: cells. The data set is classed as functional, cell-based. Particulars: Chlorocebus sabaeus.
Data set [12] concerns the target T2, Cytochrome P450 2D6 (Homo sapiens, UniProt P10635).
For another data set, the target named is T3, Cytochrome P450 1A2 (Homo sapiens, UniProt P05177).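 Further: PubChem cytochrome P450 panel assay, CYP1A2 panel member.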
T3 sequence (P05177 whole entry): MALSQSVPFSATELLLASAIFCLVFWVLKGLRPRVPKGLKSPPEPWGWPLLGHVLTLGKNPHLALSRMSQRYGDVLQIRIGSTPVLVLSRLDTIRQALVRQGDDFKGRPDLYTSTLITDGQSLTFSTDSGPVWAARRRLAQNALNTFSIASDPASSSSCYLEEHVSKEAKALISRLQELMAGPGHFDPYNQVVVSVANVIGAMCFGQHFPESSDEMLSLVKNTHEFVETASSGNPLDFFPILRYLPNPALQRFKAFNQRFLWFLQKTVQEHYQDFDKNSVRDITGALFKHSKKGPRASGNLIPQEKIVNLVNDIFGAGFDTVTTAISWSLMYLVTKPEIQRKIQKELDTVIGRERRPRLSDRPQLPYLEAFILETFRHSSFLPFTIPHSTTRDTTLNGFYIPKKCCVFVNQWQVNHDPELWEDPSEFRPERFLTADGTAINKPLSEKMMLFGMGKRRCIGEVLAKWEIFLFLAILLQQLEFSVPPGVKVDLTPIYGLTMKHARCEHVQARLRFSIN

Data set [13] can be described thus: NIH-3T3 fibroblast cytotoxicity, dose response, cytotoxicity control, cell-based, fluorescence, Alamar Blue, secondary assay (AID 2327).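 Further: NIH-3T3 mouse fibroblasts cultured with fluconazole at 8 µg/mL.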 The data set is classed as functional. (In general: Resazurin is reduced to fluorescent resorufin, in cell work by metabolically active cells.)
The next data set addresses Cytochrome P450 2C19 (Homo sapiens, UniProt P33261). Kind of data set: Cytochrome panel assay with activity outcomes. Panel member name: p450-cyp2c19 Compounds with AC50 equal or less than 10 uM are considered active. Particulars: read-out: AC50. The data set is classed as functional.
Data set [14] addresses T4, Replicative DNA helicase DnaB (Mycobacterium tuberculosis, UniProt P9WMR3).
T4 sequence (P9WMR3 whole entry): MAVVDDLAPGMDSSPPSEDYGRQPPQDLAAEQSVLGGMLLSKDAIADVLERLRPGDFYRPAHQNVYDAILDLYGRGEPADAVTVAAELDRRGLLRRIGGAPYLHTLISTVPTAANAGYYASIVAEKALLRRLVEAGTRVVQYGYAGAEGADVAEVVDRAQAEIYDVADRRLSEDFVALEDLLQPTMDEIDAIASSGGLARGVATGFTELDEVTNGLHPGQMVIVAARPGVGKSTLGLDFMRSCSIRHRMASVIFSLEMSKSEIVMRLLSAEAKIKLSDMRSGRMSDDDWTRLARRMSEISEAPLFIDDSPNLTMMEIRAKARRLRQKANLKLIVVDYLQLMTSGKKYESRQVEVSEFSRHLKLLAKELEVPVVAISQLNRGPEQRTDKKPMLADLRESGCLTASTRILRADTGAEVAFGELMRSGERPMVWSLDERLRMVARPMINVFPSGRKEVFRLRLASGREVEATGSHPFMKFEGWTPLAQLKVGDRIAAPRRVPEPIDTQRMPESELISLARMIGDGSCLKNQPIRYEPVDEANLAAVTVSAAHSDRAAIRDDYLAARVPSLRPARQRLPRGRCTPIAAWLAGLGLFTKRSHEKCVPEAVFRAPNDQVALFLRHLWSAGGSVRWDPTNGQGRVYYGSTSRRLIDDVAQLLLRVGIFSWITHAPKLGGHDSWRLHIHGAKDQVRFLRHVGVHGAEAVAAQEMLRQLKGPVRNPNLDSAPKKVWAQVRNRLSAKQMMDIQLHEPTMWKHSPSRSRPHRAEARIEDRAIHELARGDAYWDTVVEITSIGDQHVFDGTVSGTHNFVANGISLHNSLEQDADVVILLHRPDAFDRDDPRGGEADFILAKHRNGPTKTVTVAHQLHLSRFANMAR
Briefly: DnaB intein splicing inhibitors, dose response, biochemical, cell-free fluorescence (AID 449749). It counts as functional.

Data set [15] addresses T5, Short transient receptor potential channel 4 (Mus musculus, UniProt Q9QUQ5).
T5 sequence (Q9QUQ5 whole entry): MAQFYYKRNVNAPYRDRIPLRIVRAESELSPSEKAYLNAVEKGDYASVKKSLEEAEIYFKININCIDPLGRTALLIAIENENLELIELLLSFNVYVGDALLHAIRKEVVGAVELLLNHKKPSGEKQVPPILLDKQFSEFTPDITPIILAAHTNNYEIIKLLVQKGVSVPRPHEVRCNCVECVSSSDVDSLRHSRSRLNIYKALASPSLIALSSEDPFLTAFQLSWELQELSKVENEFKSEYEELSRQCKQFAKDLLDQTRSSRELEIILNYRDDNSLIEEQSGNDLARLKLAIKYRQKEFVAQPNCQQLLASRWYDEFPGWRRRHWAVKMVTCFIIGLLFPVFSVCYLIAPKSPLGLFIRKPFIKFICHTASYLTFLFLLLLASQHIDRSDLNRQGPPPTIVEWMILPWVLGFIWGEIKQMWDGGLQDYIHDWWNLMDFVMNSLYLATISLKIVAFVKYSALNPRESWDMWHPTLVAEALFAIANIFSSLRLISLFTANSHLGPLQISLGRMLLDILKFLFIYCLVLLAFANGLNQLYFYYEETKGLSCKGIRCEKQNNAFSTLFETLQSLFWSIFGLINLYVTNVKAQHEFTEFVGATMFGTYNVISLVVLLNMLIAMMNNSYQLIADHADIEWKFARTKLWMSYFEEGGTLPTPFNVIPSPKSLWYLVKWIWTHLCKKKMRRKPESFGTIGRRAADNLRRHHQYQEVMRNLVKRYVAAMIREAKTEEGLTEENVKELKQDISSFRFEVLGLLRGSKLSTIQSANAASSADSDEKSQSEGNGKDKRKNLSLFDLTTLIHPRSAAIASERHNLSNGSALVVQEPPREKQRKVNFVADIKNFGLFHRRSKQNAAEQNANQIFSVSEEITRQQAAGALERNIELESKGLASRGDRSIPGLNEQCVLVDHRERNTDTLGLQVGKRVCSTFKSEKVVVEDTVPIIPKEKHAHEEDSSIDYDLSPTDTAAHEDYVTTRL
Briefly: mouse TRPC4 channel activators, dose response, cell-based, HEK293 TRPC4/mu-opioid, Fluo-4 calcium (AID 434937). It counts as functional.

The target in a further data set is Paired box protein Pax-8 (Homo sapiens, UniProt Q06710). Briefly: inhibitors of PAX8-driven TPO luciferase reporter, dose response, RMG-I cells, cherry-pick (AID 687027).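 Further: luciferase reporter driven by Pax8 target thyroperoxidase promoter measured by SteadyGlo luminescence.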 It counts as functional, cell-based.
Data set [16] has as its target T2, Cytochrome P450 2D6. This is another data set of the same source.
The target in a further data set is Cytochrome P450 3A4 (Homo sapiens, UniProt P08684).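 Further: CYP3A4 tested as one member of a cytochrome P450 panel screen.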
Another data set addresses Cytochrome P450 2C9 (Homo sapiens, UniProt P11712).
The target in data set [17] is Glucose-6-phosphate 1-dehydrogenase (Homo sapiens, UniProt P11413). Kind of data set: human G6PD enzyme inhibitors, dose response, selectivity assay for P. falciparum G6PD inhibitor project, biochemical, fluorescence (AID 504792). The data set is classed as functional.
Chain of Glucose-6-phosphate 1-dehydrogenase (P11413 whole entry): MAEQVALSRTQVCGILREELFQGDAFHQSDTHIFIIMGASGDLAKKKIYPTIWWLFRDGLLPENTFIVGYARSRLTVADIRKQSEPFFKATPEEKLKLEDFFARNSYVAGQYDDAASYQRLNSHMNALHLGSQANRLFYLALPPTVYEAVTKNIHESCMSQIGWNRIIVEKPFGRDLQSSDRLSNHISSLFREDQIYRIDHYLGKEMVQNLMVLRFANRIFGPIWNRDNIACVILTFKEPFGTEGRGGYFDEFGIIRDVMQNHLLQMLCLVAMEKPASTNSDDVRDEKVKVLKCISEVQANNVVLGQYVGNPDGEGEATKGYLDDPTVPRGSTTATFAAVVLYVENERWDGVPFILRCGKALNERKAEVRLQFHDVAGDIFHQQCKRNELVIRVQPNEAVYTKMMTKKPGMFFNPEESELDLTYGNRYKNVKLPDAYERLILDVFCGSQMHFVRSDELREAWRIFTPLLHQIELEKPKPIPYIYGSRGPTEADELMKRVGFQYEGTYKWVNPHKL

T2 sequence (P10635 whole entry): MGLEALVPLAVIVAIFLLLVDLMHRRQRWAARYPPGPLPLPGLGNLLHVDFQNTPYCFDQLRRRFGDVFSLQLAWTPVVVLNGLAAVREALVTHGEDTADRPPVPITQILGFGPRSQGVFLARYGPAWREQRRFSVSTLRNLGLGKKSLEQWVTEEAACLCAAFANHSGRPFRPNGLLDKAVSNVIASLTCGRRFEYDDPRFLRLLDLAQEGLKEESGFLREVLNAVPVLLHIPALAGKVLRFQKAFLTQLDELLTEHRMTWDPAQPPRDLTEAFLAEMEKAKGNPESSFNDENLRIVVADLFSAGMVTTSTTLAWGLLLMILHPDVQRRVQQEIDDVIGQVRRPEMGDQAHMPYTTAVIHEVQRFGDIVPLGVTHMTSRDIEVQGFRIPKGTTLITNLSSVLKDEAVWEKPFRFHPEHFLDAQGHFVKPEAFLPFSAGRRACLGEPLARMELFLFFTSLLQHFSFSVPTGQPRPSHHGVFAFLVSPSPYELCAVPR
Chain of Cytochrome P450 2C19 (P33261 whole entry): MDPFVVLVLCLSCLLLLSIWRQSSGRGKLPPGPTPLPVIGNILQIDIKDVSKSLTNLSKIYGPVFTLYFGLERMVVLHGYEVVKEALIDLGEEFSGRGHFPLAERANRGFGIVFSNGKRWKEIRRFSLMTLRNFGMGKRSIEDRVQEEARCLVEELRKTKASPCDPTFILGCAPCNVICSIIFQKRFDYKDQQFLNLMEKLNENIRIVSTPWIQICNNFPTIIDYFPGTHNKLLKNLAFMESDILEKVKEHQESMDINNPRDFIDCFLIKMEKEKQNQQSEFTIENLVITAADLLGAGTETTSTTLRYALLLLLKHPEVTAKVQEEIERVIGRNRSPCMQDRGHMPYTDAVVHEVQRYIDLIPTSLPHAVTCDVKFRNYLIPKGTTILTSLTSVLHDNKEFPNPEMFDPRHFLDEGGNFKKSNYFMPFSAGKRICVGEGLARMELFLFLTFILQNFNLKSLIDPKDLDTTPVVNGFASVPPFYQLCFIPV
Chain of Cytochrome P450 2C9 (P11712 whole entry): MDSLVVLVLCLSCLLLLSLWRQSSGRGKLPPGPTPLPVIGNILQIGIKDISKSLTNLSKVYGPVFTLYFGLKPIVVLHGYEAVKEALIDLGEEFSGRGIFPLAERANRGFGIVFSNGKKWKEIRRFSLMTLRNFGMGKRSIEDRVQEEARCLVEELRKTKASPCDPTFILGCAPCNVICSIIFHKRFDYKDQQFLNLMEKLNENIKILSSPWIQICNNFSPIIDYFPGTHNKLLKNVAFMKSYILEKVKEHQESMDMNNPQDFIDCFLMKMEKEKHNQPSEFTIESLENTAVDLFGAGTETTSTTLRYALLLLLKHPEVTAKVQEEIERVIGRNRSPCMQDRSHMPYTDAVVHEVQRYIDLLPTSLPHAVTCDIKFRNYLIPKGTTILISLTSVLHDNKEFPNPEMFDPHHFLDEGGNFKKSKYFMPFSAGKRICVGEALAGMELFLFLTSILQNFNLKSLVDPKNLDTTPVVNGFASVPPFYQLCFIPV
Chain of Nucleotide-binding oligomerization domain-containing protein 2 (Q9HC29 whole entry, the tested form may be a part): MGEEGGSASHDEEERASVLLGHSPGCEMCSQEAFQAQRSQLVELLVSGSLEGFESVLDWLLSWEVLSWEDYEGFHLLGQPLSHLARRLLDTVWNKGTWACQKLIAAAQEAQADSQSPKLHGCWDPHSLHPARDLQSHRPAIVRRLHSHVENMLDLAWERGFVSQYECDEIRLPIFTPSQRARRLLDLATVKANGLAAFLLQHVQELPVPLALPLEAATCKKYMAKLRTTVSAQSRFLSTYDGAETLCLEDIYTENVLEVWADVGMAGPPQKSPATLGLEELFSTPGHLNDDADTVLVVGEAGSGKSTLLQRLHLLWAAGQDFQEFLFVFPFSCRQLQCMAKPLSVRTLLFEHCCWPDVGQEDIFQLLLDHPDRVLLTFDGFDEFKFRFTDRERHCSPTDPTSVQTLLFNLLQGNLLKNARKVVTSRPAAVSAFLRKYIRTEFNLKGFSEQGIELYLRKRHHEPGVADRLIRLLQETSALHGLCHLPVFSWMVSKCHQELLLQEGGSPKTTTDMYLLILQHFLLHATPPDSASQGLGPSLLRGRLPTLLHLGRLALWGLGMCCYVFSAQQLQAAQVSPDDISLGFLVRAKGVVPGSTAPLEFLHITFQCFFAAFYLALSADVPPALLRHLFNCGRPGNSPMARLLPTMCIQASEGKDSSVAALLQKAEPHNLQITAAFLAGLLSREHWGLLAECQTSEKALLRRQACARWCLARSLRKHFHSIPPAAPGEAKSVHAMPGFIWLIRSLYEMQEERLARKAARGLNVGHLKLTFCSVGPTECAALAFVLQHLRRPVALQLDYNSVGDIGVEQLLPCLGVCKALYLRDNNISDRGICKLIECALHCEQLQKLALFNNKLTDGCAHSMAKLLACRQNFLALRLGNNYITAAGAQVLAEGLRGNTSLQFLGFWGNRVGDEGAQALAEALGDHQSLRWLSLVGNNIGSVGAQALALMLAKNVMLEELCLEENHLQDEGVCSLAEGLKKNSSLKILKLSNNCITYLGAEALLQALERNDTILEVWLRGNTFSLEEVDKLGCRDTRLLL
Chain of Paired box protein Pax-8 (Q06710 whole entry): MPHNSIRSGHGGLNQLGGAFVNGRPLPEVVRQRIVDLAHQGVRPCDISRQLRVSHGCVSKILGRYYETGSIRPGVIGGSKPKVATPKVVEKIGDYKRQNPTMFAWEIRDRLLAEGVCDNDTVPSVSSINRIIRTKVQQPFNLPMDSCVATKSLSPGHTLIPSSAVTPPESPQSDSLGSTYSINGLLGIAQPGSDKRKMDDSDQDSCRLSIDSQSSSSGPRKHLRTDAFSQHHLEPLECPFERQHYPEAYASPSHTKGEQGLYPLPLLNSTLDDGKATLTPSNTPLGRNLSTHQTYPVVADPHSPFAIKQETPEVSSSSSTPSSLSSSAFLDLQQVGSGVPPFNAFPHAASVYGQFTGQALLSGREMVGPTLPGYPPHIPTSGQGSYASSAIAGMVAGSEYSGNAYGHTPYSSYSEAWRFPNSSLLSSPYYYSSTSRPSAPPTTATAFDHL
Chain of Cytochrome P450 3A4 (P08684 whole entry): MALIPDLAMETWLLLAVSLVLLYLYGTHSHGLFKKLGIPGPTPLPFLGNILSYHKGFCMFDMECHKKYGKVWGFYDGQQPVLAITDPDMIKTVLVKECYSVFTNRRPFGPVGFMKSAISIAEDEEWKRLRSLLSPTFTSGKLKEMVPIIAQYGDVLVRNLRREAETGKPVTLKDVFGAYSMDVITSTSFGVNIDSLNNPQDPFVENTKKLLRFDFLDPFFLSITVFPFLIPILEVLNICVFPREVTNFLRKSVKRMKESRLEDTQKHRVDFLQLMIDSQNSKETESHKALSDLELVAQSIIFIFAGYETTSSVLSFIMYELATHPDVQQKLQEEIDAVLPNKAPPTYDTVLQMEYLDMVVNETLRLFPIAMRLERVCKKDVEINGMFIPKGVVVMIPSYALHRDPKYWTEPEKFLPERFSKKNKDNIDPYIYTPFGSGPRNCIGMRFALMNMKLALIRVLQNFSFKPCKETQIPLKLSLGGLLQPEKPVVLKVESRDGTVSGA
Chain of Luciferin 4-monooxygenase (P08659 whole entry): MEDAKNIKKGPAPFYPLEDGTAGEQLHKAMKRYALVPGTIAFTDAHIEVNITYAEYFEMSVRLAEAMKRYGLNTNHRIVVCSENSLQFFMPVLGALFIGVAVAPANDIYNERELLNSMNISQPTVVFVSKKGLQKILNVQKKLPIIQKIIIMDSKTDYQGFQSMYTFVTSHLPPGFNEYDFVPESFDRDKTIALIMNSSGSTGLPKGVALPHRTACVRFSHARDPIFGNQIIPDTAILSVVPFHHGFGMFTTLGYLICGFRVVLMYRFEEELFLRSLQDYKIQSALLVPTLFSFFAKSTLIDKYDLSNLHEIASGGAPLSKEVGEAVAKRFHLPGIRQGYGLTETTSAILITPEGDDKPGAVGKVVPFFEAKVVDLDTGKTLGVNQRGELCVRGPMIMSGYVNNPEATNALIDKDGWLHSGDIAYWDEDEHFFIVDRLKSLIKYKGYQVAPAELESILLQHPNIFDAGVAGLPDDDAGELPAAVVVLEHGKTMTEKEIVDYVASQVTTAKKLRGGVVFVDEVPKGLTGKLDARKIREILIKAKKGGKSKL

For `Cc1ccc(-n2c(C)cc(/C=c3/sc4nc5ccccc5n4c3=O)c2C)cc1`, the IC50 (as a rule, the concentration at which inhibition is half-maximal) with HEK293 [1] was > 20 µM (inactive); in the data set with HEK293 [2] it was 0.703 µM (active); with HEK293 [4] it was 0.48 µM (active); in the data set on HEK293 [7], > 20 µM (inactive). Moreover, the EC50 (usually the concentration needed to bring the measured effect to its halfway point) in [3] was > 112 µM (not active); in data set [5] it was > 112 µM (not active); in the data set on HEK293 [6], 2.95 µM (active); in data set [8] it was 0.49 µM (active).
Consider `COc1ccc(C(=O)NC(=S)NNC(=O)CCc2ccccc2)cc1`, for which the EC50 in data set [9] is 2.16 µM (active); at Protein RecA, > 380 µM (inactive); in [13], > 150 µM (inconclusive); in [15], 5.96 µM (active). Further, in the data set with Vero [10], the CC50 (as a rule, the concentration giving 50% cytotoxicity) was 24.2 µM (active). The IC50 in the data set with Vero [11] is 24.6 µM (active). Moreover, the AC50 – broadly, the concentration giving half of the maximal activity seen – on Cytochrome P450 2D6 [12] was 15.8 µM (inconclusive); on Cytochrome P450 1A2 it was 15.8 µM (inconclusive); at Cytochrome P450 2C19, 14.1 µM (inconclusive); in data set [14], > 380 µM (inactive).
As to `CC(=O)O[C@H]1C[C@H](O[C@H]2[C@@H](O)C[C@H](O[C@H]3[C@@H](O)C[C@H](O[C@H]4CC[C@@]5(C)[C@H](CC[C@@H]6[C@@H]5C[C@@H](O)[C@]5(C)[C@@H](C7=CC(=O)OC7)CC[C@]65O)C4)O[C@@H]3C)O[C@@H]2C)O[C@H](C)[C@H]1O[C@@H]1O[C@H](CO)[C@@H](O)[C@H](O)[C@H]1O` [LANATOSIDE C], the CC50 in the data set on Vero [10] was 0.65 µM (active). Further, the half-inhibitory concentration (IC50) in the data set on Vero [11] is > 25 µM (active). Moreover, the AC50 at Paired box protein Pax-8 was 0.801 µM (active).
Regarding `Cc1cc(C)n2nc(SCN3C(=O)c4ccccc4C3=O)nc2n1`, the figures for the AC50 entry on Cytochrome P450 2D6 [16] and at Cytochrome P450 3A4 were “inconclusive” and 6.31 µM (inconclusive), respectively.
With `CCC(=O)c1ccc(OCc2ccc(C(=O)OC)cc2)c(OC)c1`, the AC50 result at Cytochrome P450 2D6 [16] was “inconclusive”; on Cytochrome P450 1A2, 6.31 µM (inconclusive); on Cytochrome P450 2C9, 8.91 µM (inconclusive).
For `CC(C)CNC(=O)c1nc(-c2ccccc2)n(-c2ccccc2)n1`, the AC50 result on Cytochrome P450 2D6 [16] was “inconclusive”; at Cytochrome P450 1A2, 28.2 µM (inconclusive); at Cytochrome P450 2C19 it was 39.8 µM (inconclusive); on Cytochrome P450 2C9, 39.8 µM (inconclusive).
`COc1ccc(C(=O)Nc2nnc(S(=O)(=O)N3CCOCC3)s2)cc1`: the IC50 in data set [17] is > 80 µM (inactive).
Regarding `COc1cccc(OCc2cc(C(=O)NCc3cnc4ccccn34)no2)c1`, the IC50 with HEK293 [1] is > 20 µM (inactive); in the data set with HEK293 [2], 18.9 µM (active); in the data set on HEK293 [4], > 20 µM (inactive); with HEK293 [7], > 20 µM (inactive). The results for the EC50 (in the data set on HEK293 [6]; in [8]) were 12.9 µM (active) and > 20 µM (inactive), respectively.
